Assay results: patent US8629293B2, “Process for the preparation of FE(III) chelates of N,N′-DI(2-hydroxybenzyl)-ethylenediamine-N,N′-diacetic acid and its derivatives” (Przedsiebiorstwo Produkcyjno-Consultingowe Adob SP. Z O.O. …, priority 2009, dated 2014)

Columns and labels:
Format in all cases: in vivo
[1] = tested on: 10-year old nectarine trees, cultivar "Zephyr" grafted on the GF677 root stock; experiment: Field test, testing field No. 1: SPAD index; conditions: 0.9 g of the chelated Fe/tree
Protocol: (§1) The comparison included two chelate agents for supplementing iron deficiencies: HBED/Fe^3+ as well as the commercially available, highly purified EDDHA/Fe^3+. The studies were carried out on two fields with the soil having an alkaline pH as well as a high concentration of calcium ions. The chelates were applied directly to the soil by means of a dripper immersed in the soil.
10-year old nectarine trees, cultivar “Zephyr” grafted on the GF677 root stock
The chelates were applied at the following concentrations: • EDDHA/Fe^3+: high concentration (0.9 g of the chelated Fe/tree) • HBED/Fe^3+: low concentration (0.45 g of the chelated Fe/tree) • HBED/Fe^3+: high concentration (0.9 g of the chelated Fe/tree) • control trial: without Fe
The chelate solutions of various concentrations were applied in three portions (50%, 30%, and finally 20% of the whole dose, respectively) directly to the ground below the dripper.
The SPAD index was measured approximately every two weeks: on day 14, 29, 44, 61, 88 and 99 after application of the chelates.

[2] = tested on: 7-year old trees of flat peach (Prunus persica var. platycarpa) grafted on the GF677 root stock with visible symptoms of chlorosis; experiment: Field test, testing field No. 2: SPAD index of leaves; conditions: 0.9 g of the chelated Fe/tree
Protocol: as §1
7-year old trees of flat peach (Prunus persica var. platycarpa) grafted on the GF677 root stock with visible symptoms of chlorosis
The chelates were applied at the following concentrations: • EDDHA/Fe^3+: high concentration (0.9 g of the chelated Fe/tree) • HBED/Fe^3+: high concentration (0.9 g of the chelated Fe/tree) • control trial: without Fe
The chelate solutions were dosed directly to the ground below the dripper. In this case, the whole dose of the chelates were applied in one portion. The symptoms of chlorosis were visible at the beginning of the experiment.
The samples for determination of the SPAD index of leaves were taken approximately every two weeks (on day 0, 20, 40 and 63 after application of the chelates).

[3] = tested on: soybean (Glycine max L.) var. Stine 0480; experiment: Fertilising of soya in plant growth climatic chamber: SPAD index (leaves greenness); conditions: for The SPAD index, 2nd level of foliage / The SPAD index, 3rd level of foliage: end of experiment
Protocol: (§2) The experiment was performed using the seeds of soybean (Glycine max L.) var. Stine 0480. A standard seed germination procedure was followed. Before starting the experiment, the seeds were thoroughly washed with water (30 minutes). The clean seeds were placed between two sheets of a cellulose paper soaked with water. The seeds germinated over two days in a climatic chamber at a temperature of 30° C. and a humidity of 60%, without access of light. After that time, the seedlings at a similar stage of development were placed on perforated trays floating over containers containing 10 L of the diluted nutrient solution for four days, followed by next three days using a solution containing micronutrients but without iron. Composition of the nutrient solution was: 1 mM Ca(NO3)2, 0.90 mM KNO3, 0.30 mM MgSO4, 0.10 mM KH2PO4, 2.5 μM MnSO4, 1.0 μM CuSO4, 10 μM ZnSO4, 1.0 μM NiCl2, 1.0 μM CoSO4, 115.5 μM Na2EDTA, 231 μM KOH, 35 μM NaCl, 10 μM H3BO3, 0.05 μM Na2MoO4 and 0.1 mM of N-(2-hydroxyethyl)piperazine-N′-(2-ethanesulfonic acid) sodium salt (HEPES). The pH value was adjusted to 7.5 using 1M KOH. 1-litre pots were filled with soil and sand in a volume ratio of 2:1. The test plants were transplanted into the thus-prepared pots, 3 plants per each pot. The experiment was carried out with adhering to the daily cycle of plant growth: 16 h of day time (30° C., 50% humidity) and 8 h of night time (25° C., 70% humidity).
(§3) Seven days after transplanting the plants into the pots, the symptoms of chlorosis were observed. The further part of the experiment was aimed at comparison of the effectiveness of performance of FeHBED with that of the commercially available FeEDDHA. For this purpose, the solutions of FeHBED and FeEDDHA were prepared, in which the iron isotope ^57Fe was used. The concentrations of ^57Fe in the doses were 0, 1.7, 3.4, 8.4, 16.8, 25.1 and 41.9 μmol of ^57Fe/kg of soil. Each dose was applied in duplicate. Additionally, a blank test (without iron) was performed for three pots.
The SPAD index (a measure of leaves greenness) was determined every two days during the whole experiment.

[4] = tested on: soybean (Glycine max L.) var. Stine 0480; experiment: Fertilising of soya in plant growth climatic chamber: plant dry matter
Protocol: as §2, §3
Table 1 summarises the results of dry matter of above-ground sprouts (leaves and stems) for the plants gathered after every application of iron solutions of various concentration for two samplings.

Compound: O=C([O-])C(NCCNC(C(=O)[O-])c1ccccc1[O-])c1ccccc1[O-].[Fe+3] (stereo not drawn) [EDDHA/Fe^3+, reference compound]
- The SPAD index of the fructifying branches ([1]; day 14 after application): 36.00
- The SPAD index of the non-fructifying branches ([1]; day 14 after application): 35.69
- The SPAD index of the fructifying branches ([1]; day 29 after application): 37.00
- The SPAD index of the non-fructifying branches ([1]; day 29 after application): 37.77
- The SPAD index of the fructifying branches ([1]; day 44 after application): 37.82
- The SPAD index of the non-fructifying branches ([1]; day 44 after application): 36.23
- The SPAD index of the fructifying branches ([1]; day 61 after application): 37.82
- The SPAD index of the non-fructifying branches ([1]; day 61 after application): 35.15
- The SPAD index of the fructifying branches ([1]; day 88 after application): 39.09
- The SPAD index of the non-fructifying branches ([1]; day 88 after application): 37.38
- The SPAD index of the fructifying branches ([1]; day 99 after application): 38.91
- The SPAD index of the non-fructifying branches ([1]; day 99 after application): 36.92
- ΔSPAD index of leaves ([2]; day 0 after application): 0
- ΔSPAD index of leaves ([2]; day 20 after application): 13.00
- ΔSPAD index of leaves ([2]; day 40 after application): 17.50
- ΔSPAD index of leaves ([2]; day 63 after application): 17.25

Compound: O=C(O)CN(CCN(CC(=O)O)Cc1ccccc1O)Cc1ccccc1O [HBED]
- SPAD index compared with o,oEDDHA/57Fe3+ ([3]; both levels of foliage): No significant differences in the values of the SPAD index
- The SPAD index, 2nd level of foliage ([3]; 1.7 μmol of 57Fe/kg of soil): 29.58
- The SPAD index, 3rd level of foliage ([3]; 1.7 μmol of 57Fe/kg of soil): 34.09
- The SPAD index, 2nd level of foliage ([3]; 3.4 μmol of 57Fe/kg of soil): 28.75
- The SPAD index, 3rd level of foliage ([3]; 3.4 μmol of 57Fe/kg of soil): 35.91
- The SPAD index, 2nd level of foliage ([3]; 8.4 μmol of 57Fe/kg of soil): 42.50
- The SPAD index, 3rd level of foliage ([3]; 8.4 μmol of 57Fe/kg of soil): 43.18
- The SPAD index, 2nd level of foliage ([3]; 16.8 μmol of 57Fe/kg of soil): 27.92
- The SPAD index, 3rd level of foliage ([3]; 16.8 μmol of 57Fe/kg of soil): 37.73
- The SPAD index, 2nd level of foliage ([3]; 25.1 μmol of 57Fe/kg of soil): 27.92
- The SPAD index, 3rd level of foliage ([3]; 25.1 μmol of 57Fe/kg of soil): 37.73
- The SPAD index, 2nd level of foliage ([3]; 41.9 μmol of 57Fe/kg of soil): 29.17
- The SPAD index, 3rd level of foliage ([3]; 41.9 μmol of 57Fe/kg of soil): 43.64
- Sprout dry weights compared with o,oEDDHA/57Fe3+ ([4]; conclusion from Table 1, all doses): no evident difference in the sprout dry weights
- Root dry weight ([4]; dose 1.7 μmol 57Fe/kg of soil): 0.33 g/3 plants
- Sprout dry weight, 1 sampling ([4]; dose 1.7 μmol 57Fe/kg of soil): 0.73 g/plant
- Sprout dry weight, 2 sampling ([4]; dose 1.7 μmol 57Fe/kg of soil): 2.20 g/plant
- Root dry weight ([4]; dose 3.4 μmol 57Fe/kg of soil): 0.53 g/3 plants
- Sprout dry weight, 1 sampling ([4]; dose 3.4 μmol 57Fe/kg of soil): 0.79 g/plant
- Sprout dry weight, 2 sampling ([4]; dose 3.4 μmol 57Fe/kg of soil): 2.83 g/plant
- Root dry weight ([4]; dose 8.4 μmol 57Fe/kg of soil): 0.56 g/3 plants
- Sprout dry weight, 1 sampling ([4]; dose 8.4 μmol 57Fe/kg of soil): 0.91 g/plant
- Sprout dry weight, 2 sampling ([4]; dose 8.4 μmol 57Fe/kg of soil): 2.62 g/plant
- Root dry weight ([4]; dose 16.8 μmol 57Fe/kg of soil): 0.51 g/3 plants
- Sprout dry weight, 1 sampling ([4]; dose 16.8 μmol 57Fe/kg of soil): 0.72 g/plant
- Sprout dry weight, 2 sampling ([4]; dose 16.8 μmol 57Fe/kg of soil): 3.19 g/plant
- Root dry weight ([4]; dose 25.1 μmol 57Fe/kg of soil): 0.43 g/3 plants
- Sprout dry weight, 1 sampling ([4]; dose 25.1 μmol 57Fe/kg of soil): 0.92 g/plant
- Sprout dry weight, 2 sampling ([4]; dose 25.1 μmol 57Fe/kg of soil): 2.66 g/plant
- Root dry weight ([4]; dose 41.9 μmol 57Fe/kg of soil): 0.49 g/3 plants
- Sprout dry weight, 1 sampling ([4]; dose 41.9 μmol 57Fe/kg of soil): 0.79 g/plant
- Sprout dry weight, 2 sampling ([4]; dose 41.9 μmol 57Fe/kg of soil): 2.63 g/plant

Compound: O=C([O-])C(NCCNC(C(=O)[O-])c1ccccc1[O-])c1ccccc1[O-].[Fe+3] (stereo not drawn) [o,oEDDHA, reference compound]
- The SPAD index, 2nd level of foliage ([3]; 1.7 μmol of 57Fe/kg of soil): 37.92
- The SPAD index, 3rd level of foliage ([3]; 1.7 μmol of 57Fe/kg of soil): 43.18
- The SPAD index, 2nd level of foliage ([3]; 3.4 μmol of 57Fe/kg of soil): 34.58
- The SPAD index, 3rd level of foliage ([3]; 3.4 μmol of 57Fe/kg of soil): 40.00
- The SPAD index, 2nd level of foliage ([3]; 8.4 μmol of 57Fe/kg of soil): 31.67
- The SPAD index, 3rd level of foliage ([3]; 8.4 μmol of 57Fe/kg of soil): 36.82
- The SPAD index, 2nd level of foliage ([3]; 16.8 μmol of 57Fe/kg of soil): 32.92
- The SPAD index, 3rd level of foliage ([3]; 16.8 μmol of 57Fe/kg of soil): 40.46
- The SPAD index, 2nd level of foliage ([3]; 25.1 μmol of 57Fe/kg of soil): 37.08
- The SPAD index, 3rd level of foliage ([3]; 25.1 μmol of 57Fe/kg of soil): 37.73
- The SPAD index, 2nd level of foliage ([3]; 41.9 μmol of 57Fe/kg of soil): 38.75
- The SPAD index, 3rd level of foliage ([3]; 41.9 μmol of 57Fe/kg of soil): 44.55
- Root dry weight ([4]; dose 1.7 μmol 57Fe/kg of soil): 0.44 g/3 plants
- Sprout dry weight, 1 sampling ([4]; dose 1.7 μmol 57Fe/kg of soil): 0.88 g/plant
- Sprout dry weight, 2 sampling ([4]; dose 1.7 μmol 57Fe/kg of soil): 2.08 g/plant
- Root dry weight ([4]; dose 3.4 μmol 57Fe/kg of soil): 0.51 g/3 plants
- Sprout dry weight, 1 sampling ([4]; dose 3.4 μmol 57Fe/kg of soil): 0.79 g/plant
- Sprout dry weight, 2 sampling ([4]; dose 3.4 μmol 57Fe/kg of soil): 2.92 g/plant
- Root dry weight ([4]; dose 8.4 μmol 57Fe/kg of soil): 0.49 g/3 plants
- Sprout dry weight, 1 sampling ([4]; dose 8.4 μmol 57Fe/kg of soil): 0.87 g/plant
- Sprout dry weight, 2 sampling ([4]; dose 8.4 μmol 57Fe/kg of soil): 2.03 g/plant
- Root dry weight ([4]; dose 16.8 μmol 57Fe/kg of soil): 0.53 g/3 plants
- Sprout dry weight, 1 sampling ([4]; dose 16.8 μmol 57Fe/kg of soil): 0.84 g/plant
- Sprout dry weight, 2 sampling ([4]; dose 16.8 μmol 57Fe/kg of soil): 2.56 g/plant
- Root dry weight ([4]; dose 25.1 μmol 57Fe/kg of soil): 0.59 g/3 plants
- Sprout dry weight, 1 sampling ([4]; dose 25.1 μmol 57Fe/kg of soil): 0.81 g/plant
- Sprout dry weight, 2 sampling ([4]; dose 25.1 μmol 57Fe/kg of soil): 2.73 g/plant
- Root dry weight ([4]; dose 41.9 μmol 57Fe/kg of soil): 0.49 g/3 plants
- Sprout dry weight, 1 sampling ([4]; dose 41.9 μmol 57Fe/kg of soil): 0.86 g/plant
- Sprout dry weight, 2 sampling ([4]; dose 41.9 μmol 57Fe/kg of soil): 3.20 g/plant
